The source of these data is patent US20060111308A1, “Methods and compositions for therapeutic treatment” (priority 2004, published 2006).

Where two headings read alike, the source gives them in different places.

The subject of data set [1] is mdr1a (P-gP) knockout (−/−) mouse. Particulars: cited from earlier work; for sensitivity to fetal cleft palate: same doses as knockout mice.
For data set [2], the system named is adult subjects with chronic pain. Kind of data set: Human study of the effects of oral quercetin (Q) and analgesics on sedation, concentration and pain. The class given is in vivo. On the procedure: An empiric trial on the effects of oral quercetin (Q) on sedation, concentration, and pain was conducted. Inclusion criteria included ongoing pain of at least 4/10 on the Likert scale, poor tolerance of current analgesic regimen (complaints of sedation, dizziness, inability to focus), and willingness to complete daily diaries.
Approximately 16 adult subjects with chronic pain were screened and 9 subjects were admitted to the trial. Their pain disorders included peripheral neuropathy (2), facial pain (2), cervical radiculopathy (2), lumbar spine disease (3). Their pre-existing medications included short acting opioids (Vicodin TID, Tramadol 50 mg Q4-6), high dose, long acting opioids (OxyContin 240 mg, Methadone 400 mg), Gabapentin (900 mg and 2700 mg), Ativan, Flexeril, and Soma 350 mg. Seven of the subjects were using at least two analgesic medications. Two subjects were using no current medications because of prior histories of sedation and dizziness during opioid trials.
Q (Sigma) 500 mg per gel capsule was compounded and supplied to all subjects by overnight mail. Subjects were instructed to complete daily diaries for 7 days and continue their baseline medications and regular activities. On approximately the 7th day, they were asked to begin twice daily dosing of 2 Q (1000 mg) capsules (total daily dose of Q, 2000 mg). Diaries were completed for 7 days. Individual diaries included rating sleep interference, focus, pain now, and worst pain over the prior 24 hours. Subjects were instructed that concomitant pain medications should not be altered without speaking with the investigator. Subjects were advised that they would be contacted by telephone every day or every other day to assess progress in the trial and any side effects associated with the addition of Q. At the end of the trial, patients were interviewed. They were asked to rate their satisfaction with the study medication (−2−+2) and its ability to modulate the CNS effects of their pain medications.

For data set [3] the following is noted: in vivo; cited from earlier work.
[4] abbreviates: after 7 days of co-administration of Q (2000 mg daily, oral) and analgesics, FIG. 16.
Setting [5] is: scale of −2 to 2, patients on opiate or MSD and Q.

In the case of `CC[C@H](C)[C@H]1O[C@]2(C=C[C@@H]1C)C[C@@H]1C[C@@H](C/C=C(\C)[C@@H](O[C@H]3C[C@H](OC)[C@@H](O[C@H]4C[C@H](OC)[C@@H](O)[C@H](C)O4)[C@H](C)O3)[C@@H](C)/C=C/C=C3\CO[C@@H]4[C@H](O)C(C)=C[C@@H](C(=O)O1)[C@]34O)O2` [avermectin], the “sensitivity to fetal cleft palate” value in data set [1] (heterozygous (+/−) mice) is reported as “less sensitive”; in data set [1] (homozygous (+/+) mice), “insensitive”. The “incidence of fetal cleft palate” value in data set [1] (mdr1a knockout mice) is on record as 100%.
Turning to `O=c1c(O)c(-c2ccc(O)c(O)c2)oc2cc(O)cc(O)c12` [Q, quercetin], in data set [2] (setting [4]), the “mean ratings for concentration improved” value was “over 60%”, the “mean ratings for sleep improved” value was “more than 25%” and the “mean ratings for worst pain improved” value is “more than 25%”. For the same molecule, the “mean ratings for pain now decreased” value in data set [2] (after 7 days of co-administration of Q (2000 mg daily, oral) and analgesics, all patients taking analgesic medications and Q, FIG. 16) was “more than 70%”. For the same molecule, in data set [2] (all patients after taking Q, 1 no pain, 10 worst, FIG. 7), the “worst pain in the last 24 hrs (NPRS)” value was “overall improvement”. Besides, the “concentration rating (short term memory, focus, wakefulness)” value in data set [2] (all patients after taking Q, 1 perfect concentration, 10 worst, FIG. 6) is “overall improvement”. The “pain at the time the patients were called (pain now)” value in data set [2] (all patients after taking Q, FIG. 8) was “overall improvement”. The sleep rating result in data set [2] (all patients after taking Q, scale to 10 as worst, FIG. 5) was “overall improvement”. The “global assessment on the scale of −2 to 2” value in data set [2] (all patients on opiate or MSD (membrane stabilizing drug) and modulator (Q), FIG. 15) is listed as “overall improvement”. Further, in data set [2] (opioid users taking Q), the central withdrawal entry was “noted in 3”. Also, in data set [2] (setting [5]), the “patients reporting 2 in global assessment” value is listed as “three” and the “patients reporting −2 in global assessment” value was “none”. Moreover, the “pain on the scale from 1-10 (worst pain in last 24 hrs, pain at time of call)” value in data set [2] (two patients not on baseline meds, poor tolerance of systemic medications, FIG. 13 and 14) is given as “brought the pain down”. Also, the serum half-life in data set [3] is 19 to 25 h.
